Measurements taken from publication PMC8537445, “D-Peptide-Based Probe for CXCR4-Targeted Molecular Imaging and Radionuclide Therapy” (Pharmaceutics, 2021).
Like-named read-outs stand apart in the source and are kept apart here. Positions of bridges follow the written chain, without caps; N, C: chain ends. Non-standard residues stand in square brackets, D forms with d. Residues, ends and D or L forms follow the SMILES beside them. Chains are numbered I, II in the order given. *: point of attachment. NOTA = O=C(O)CN1CCN(CC(=O)O)CCN(CC(=O)*)CC1

Assay: Ex vivo biodistribution in U87.hCXCR4 tumor-bearing mice
Parameters: species or system mouse
Conditions: female, SCID (CB17.Cg-Prkdc<scid>Lyst<bg-J>/Crl), mouse, iv, total radioactivity, 75 min p.i., mean ± SD; for tissue to tissue ratio at 1.25 h: SUV ratio

CC(C)C[C@@H](N)C(=O)NCC(=O)N[C@H](C)C(=O)N[C@H](CO)C(=O)N[C@H](Cc1c[nH]c2ccccc12)C(=O)N[C@H](Cc1c[nH]cn1)C(=O)N[C@H](CCCNC(=N)N)C(=O)N1CCC[C@@H]1C(=O)N[C@H](CC(=O)O)C(=O)N[C@H](CCCCNC(=O)CN1CCN(CC(=O)O)CCN(CC(=O)O)CC1)C(=O)NCCCC[C@@H](NC(=O)[C@H]1CCCN1C(=O)[C@@H](CC(C)C)NC(=O)[C@H]1CCCN1C(=O)[C@@H](CCCNC(=N)N)NC(=O)[C@@H](CCCCN)NC(=O)[C@@H](CCC(N)=O)NC(=O)[C@@H](Cc1ccc(O)cc1)NC(=O)CNC(=O)[C@@H](CC(C)C)NC(=O)[C@@H](CS)NC(=O)[C@@H](CS)NC(=O)[C@@H](CCCCN)NC(=O)[C@@H](CC(=O)O)NC(=O)[C@H]1CCCN1C(=O)[C@@H](CCCNC(=N)N)NC(=O)[C@@H](Cc1c[nH]cn1)NC(=O)[C@@H](Cc1c[nH]c2ccccc12)NC(=O)[C@@H](CO)NC(=O)[C@@H](C)NC(=O)CNC(=O)[C@H](N)CC(C)C)C(=O)O [[^18F]AlF-NOTA-DV1-k-(DV3)] (I: H-[dL]G[dA][dS][dW][dH][dR][dP][dD][dK][dC][dC][dL]G[dY][dQ][dK][dR][dP][dL][dP][dK]-OH / II: H-[dL]G[dA][dS][dW][dH][dR][dP][dD][dK](NOTA); amide I:22-II:C)
SUV at 1.25 h (kidneys, co-injected AMD3100 5 mg/kg (157 nmol), n = 4, read-out: kidneys uptake): 47.5 ± 3.1 SUV | SUV at 1.25 h (kidneys, co-injected DV1-k-(DV3) 7 nmol, n = 3, read-out: kidneys uptake): 39.2 ± 7.6 SUV | SUV at 1.25 h (kidneys, co-injected DV1-k-(DV3) 14 nmol, n = 4, read-out: kidneys uptake): 33.6 ± 12.4 SUV | SUV at 1.25 h (kidneys, co-injected DV1-k-(DV3) 24 nmol, n = 4, read-out: kidneys uptake): 36.1 ± 5.9 SUV | SUV at 1.25 h (kidneys, tracer alone (0 nmol), n = 4, read-out: kidneys uptake): 26.5 ± 6 SUV | SUV at 1.25 h (liver, co-injected AMD3100 5 mg/kg (157 nmol), n = 4, read-out: liver uptake): 0.9 ± 0.3 SUV | SUV at 1.25 h (liver, tracer alone (0 nmol), n = 4, read-out: liver uptake): 8.2 ± 1 SUV | SUV at 1.25 h (liver, with unlabelled DV1-k-(DV3) 7 nmol, co-injected, co-injected DV1-k-(DV3) 7 nmol, n = 3, read-out: liver uptake): 1.2 ± 0.1 SUV | SUV at 1.25 h (liver, with unlabelled DV1-k-(DV3) 14 nmol, co-injected, co-injected DV1-k-(DV3) 14 nmol, n = 4, read-out: liver uptake): 1.2 ± 0.4 SUV | SUV at 1.25 h (liver, with unlabelled DV1-k-(DV3) 24 nmol, co-injected, co-injected DV1-k-(DV3) 24 nmol, n = 4, read-out: liver uptake): 0.7 ± 0.1 SUV | SUV at 1.25 h (lungs, co-injected AMD3100 5 mg/kg (157 nmol), n = 4, read-out: lungs uptake): 0.5 ± 0.1 SUV | SUV at 1.25 h (lungs, co-injected DV1-k-(DV3) 7 nmol, n = 3, read-out: lungs uptake): 0.7 ± 0.2 SUV | SUV at 1.25 h (lungs, co-injected DV1-k-(DV3) 14 nmol, n = 4, read-out: lungs uptake): 0.9 ± 0.3 SUV | SUV at 1.25 h (lungs, co-injected DV1-k-(DV3) 24 nmol, n = 4, read-out: lungs uptake): 0.6 ± 0.2 SUV | SUV at 1.25 h (lungs, tracer alone (0 nmol), n = 4, read-out: lungs uptake): 0.6 ± 0.2 SUV | SUV at 1.25 h (muscle, co-injected DV1-k-(DV3) 7 nmol, n = 3, read-out: muscle uptake): 0.2 ± 0.1 SUV | SUV at 1.25 h (muscle, co-injected DV1-k-(DV3) 14 nmol, n = 4, read-out: muscle uptake): 0.2 ± 0.1 SUV | SUV at 1.25 h (muscle, co-injected DV1-k-(DV3) 24 nmol, n = 4, read-out: muscle uptake): 0.2 ± 0.1 SUV | SUV at 1.25 h (muscle, tracer alone (0 nmol), n = 4, read-out: muscle uptake): 0.05 ± 0.02 SUV | SUV at 1.25 h (muscle, with AMD3100 5 mg/kg (157 nmol), co-injected, co-injected AMD3100 5 mg/kg (157 nmol), n = 4, read-out: muscle uptake): 0.1 ± 0.1 SUV | SUV at 1.25 h (pancreas, co-injected AMD3100 5 mg/kg (157 nmol), n = 4, read-out: pancreas uptake): 0.1 ± 0.1 SUV | SUV at 1.25 h (pancreas, co-injected DV1-k-(DV3) 7 nmol, n = 3, read-out: pancreas uptake): 0.1 ± 0.04 SUV | SUV at 1.25 h (pancreas, co-injected DV1-k-(DV3) 14 nmol, n = 4, read-out: pancreas uptake): 0.2 ± 0.1 SUV | SUV at 1.25 h (pancreas, co-injected DV1-k-(DV3) 24 nmol, n = 4, read-out: pancreas uptake): 0.1 ± 0.03 SUV | SUV at 1.25 h (pancreas, tracer alone (0 nmol), n = 4, read-out: pancreas uptake): 0.06 ± 0.02 SUV | SUV at 1.25 h (spleen, co-injected AMD3100 5 mg/kg (157 nmol), n = 4, read-out: spleen uptake): 0.5 ± 0.1 SUV | SUV at 1.25 h (spleen, co-injected DV1-k-(DV3) 7 nmol, n = 3, read-out: spleen uptake): 0.5 ± 0.1 SUV | SUV at 1.25 h (spleen, co-injected DV1-k-(DV3) 14 nmol, n = 4, read-out: spleen uptake): 0.6 ± 0.2 SUV | SUV at 1.25 h (spleen, co-injected DV1-k-(DV3) 24 nmol, n = 4, read-out: spleen uptake): 0.4 ± 0.1 SUV | SUV at 1.25 h (spleen, tracer alone (0 nmol), n = 4, read-out: spleen uptake): 2.5 ± 1 SUV | tissue to tissue ratio at 1.25 h (tumor / blood, tracer alone (0 nmol), n = 4, read-out: tumor-to-blood ratio (t/blood)): 4.6 ± 0.9 | tissue to tissue ratio at 1.25 h (tumor / liver, tracer alone (0 nmol), n = 4, read-out: tumor-to-liver ratio (t/liver)): 0.1 ± 0.02 | tissue to tissue ratio at 1.25 h (tumor / liver, with unlabelled DV1-k-(DV3) 24 nmol, co-injected, co-injected DV1-k-(DV3) 24 nmol, n = 4, read-out: tumor-to-liver ratio (t/liver)): 0.9 ± 0.2 | tissue to tissue ratio at 1.25 h (tumor / muscle, tracer alone (0 nmol), n = 4, read-out: tumor-to-muscle ratio (t/muscle)): 12.4 ± 2.9 | tissue to tissue ratio at 1.25 h (tumor / muscle, with AMD3100 5 mg/kg (157 nmol), co-injected, co-injected AMD3100 5 mg/kg (157 nmol), n = 4, read-out: tumor-to-muscle ratio (t/muscle)): 4.2 ± 1.1 | tissue to tissue ratio at 1.25 h (tumor / muscle, with unlabelled DV1-k-(DV3) 7 nmol, co-injected, co-injected DV1-k-(DV3) 7 nmol, n = 3, read-out: tumor-to-muscle ratio (t/muscle)): 5.4 ± 2.2 | tissue to tissue ratio at 1.25 h (tumor / muscle, with unlabelled DV1-k-(DV3) 14 nmol, co-injected, co-injected DV1-k-(DV3) 14 nmol, n = 4, read-out: tumor-to-muscle ratio (t/muscle)): 4.8 ± 2.1 | tissue to tissue ratio at 1.25 h (tumor / muscle, with unlabelled DV1-k-(DV3) 24 nmol, co-injected, co-injected DV1-k-(DV3) 24 nmol, n = 4, read-out: tumor-to-muscle ratio (t/muscle)): 3 ± 0.4 | SUV at 1.25 h (tumor, tracer alone (0 nmol), n = 4, read-out: tumor uptake): 0.6 ± 0.2 SUV | SUV at 1.25 h (tumor, with AMD3100 5 mg/kg (157 nmol), co-injected, co-injected AMD3100 5 mg/kg (157 nmol), n = 4, read-out: tumor uptake): 0.4 ± 0.2 SUV | SUV at 1.25 h (tumor, with unlabelled DV1-k-(DV3) 7 nmol, co-injected, co-injected DV1-k-(DV3) 7 nmol, n = 3, read-out: tumor uptake): 0.7 ± 0.1 SUV | SUV at 1.25 h (tumor, with unlabelled DV1-k-(DV3) 14 nmol, co-injected, co-injected DV1-k-(DV3) 14 nmol, n = 4, read-out: tumor uptake): 0.9 ± 0.3 SUV | SUV at 1.25 h (tumor, with unlabelled DV1-k-(DV3) 24 nmol, co-injected, co-injected DV1-k-(DV3) 24 nmol, n = 4, read-out: tumor uptake): 0.6 ± 0.2 SUV | tissue to tissue ratio at 1.25 h (tumor/blood, co-injected DV1-k-(DV3) 7 nmol, n = 3, read-out: tumor-to-blood ratio (t/blood)): 2.2 ± 0.9 | tissue to tissue ratio at 1.25 h (tumor/blood, co-injected DV1-k-(DV3) 14 nmol, n = 4, read-out: tumor-to-blood ratio (t/blood)): 2 ± 0.9 | tissue to tissue ratio at 1.25 h (tumor/blood, co-injected DV1-k-(DV3) 24 nmol, n = 4, read-out: tumor-to-blood ratio (t/blood)): 1.8 ± 0.3 | tissue to tissue ratio at 1.25 h (tumor/bone, co-injected AMD3100 5 mg/kg (157 nmol), n = 4, read-out: tumor-to-bone ratio (t/bone)): 2.6 ± 0.7 | tissue to tissue ratio at 1.25 h (tumor/bone, co-injected DV1-k-(DV3) 7 nmol, n = 3, read-out: tumor-to-bone ratio (t/bone)): 2.9 ± 0.3 | tissue to tissue ratio at 1.25 h (tumor/bone, co-injected DV1-k-(DV3) 14 nmol, n = 4, read-out: tumor-to-bone ratio (t/bone)): 3.2 ± 0.4 | tissue to tissue ratio at 1.25 h (tumor/bone, co-injected DV1-k-(DV3) 24 nmol, n = 4, read-out: tumor-to-bone ratio (t/bone)): 3.3 ± 0.5 | tissue to tissue ratio at 1.25 h (tumor/bone, tracer alone (0 nmol), n = 4, read-out: tumor-to-bone ratio (t/bone)): 1.4 ± 0.5 | tissue to tissue ratio at 1.25 h (tumor/liver, co-injected AMD3100 5 mg/kg (157 nmol), n = 4, read-out: tumor-to-liver ratio (t/liver)): 0.5 ± 0.2 | tissue to tissue ratio at 1.25 h (tumor/liver, co-injected DV1-k-(DV3) 7 nmol, n = 3, read-out: tumor-to-liver ratio (t/liver)): 0.6 ± 0.1 | tissue to tissue ratio at 1.25 h (tumor/liver, co-injected DV1-k-(DV3) 14 nmol, n = 4, read-out: tumor-to-liver ratio (t/liver)): 0.8 ± 0.2 | tissue to tissue ratio at 1.25 h (tumor/spleen, co-injected AMD3100 5 mg/kg (157 nmol), n = 4, read-out: tumor-to-spleen ratio (t/spleen)): 0.7 ± 0.2 | tissue to tissue ratio at 1.25 h (tumor/spleen, co-injected DV1-k-(DV3) 7 nmol, n = 3, read-out: tumor-to-spleen ratio (t/spleen)): 1.4 ± 0.1 | tissue to tissue ratio at 1.25 h (tumor/spleen, co-injected DV1-k-(DV3) 14 nmol, n = 4, read-out: tumor-to-spleen ratio (t/spleen)): 1.4 ± 0.1 | tissue to tissue ratio at 1.25 h (tumor/spleen, co-injected DV1-k-(DV3) 24 nmol, n = 4, read-out: tumor-to-spleen ratio (t/spleen)): 1.6 ± 0.3 | tissue to tissue ratio at 1.25 h (tumor/spleen, tracer alone (0 nmol), n = 4, read-out: tumor-to-spleen ratio (t/spleen)): 0.3 ± 0.1
